Assay results: patent publication US12391737B2, “Soluble NPY2 receptor agonists” (Boehringer Ingelheim International GmbH, priority 2020, dated 2025)

What was measured:
[1] = target: T1, Human Neuropeptide Y2 Receptor (Homo sapiens, UniProt P49146); assay: Radioligand binding competition assay (RLB); conditions: Table 3, 125I-PYY(1-36) competition; read-out: Ki
T1 construct: purchased CHEMICON HTS066M
T1 sequence (P49146 1-381): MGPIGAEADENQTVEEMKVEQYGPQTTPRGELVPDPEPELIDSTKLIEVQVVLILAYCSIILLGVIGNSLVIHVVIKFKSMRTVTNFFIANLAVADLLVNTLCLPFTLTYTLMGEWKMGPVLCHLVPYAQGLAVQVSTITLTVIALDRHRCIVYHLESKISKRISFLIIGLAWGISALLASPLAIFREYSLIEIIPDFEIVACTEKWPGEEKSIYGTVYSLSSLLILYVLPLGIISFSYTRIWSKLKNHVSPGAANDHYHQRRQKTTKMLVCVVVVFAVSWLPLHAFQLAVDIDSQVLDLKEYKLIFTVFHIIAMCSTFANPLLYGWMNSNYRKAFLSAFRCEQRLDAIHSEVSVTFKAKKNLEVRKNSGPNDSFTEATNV
How it was run: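 Filtration binding assay on human Y2 receptor membrane preparation, 0.5 μg protein per well, in 50 mM HEPES pH 7.4 containing 5 mM MgCl2, 1 mM CaCl2 and 0.2% ovalbumin. Plates shake 2 h at room temperature before harvest and scintillation counting.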

Solubility determination = conditions: for Sol6: pH 6; for Sol7: pH 7
How it was run: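 First, TFA-salt peptide was added to 0.1 M sodium diphosphate (pH 6.4 or 7.0) to 10 mg/ml and shaken 2 h at room temperature. Next, insoluble material was filtered off. Finally, filtrate and control, each 1 mg/ml in 50% acetonitrile, were compared by reversed-phase chromatography.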

Ki [1] | Sol6 (Solubility determination) | Sol7 (Solubility determination) | SMILES
1.68 nM | 0.0 mg/mL | 0.3 mg/mL | CC(C)CC(=O)N[C@@H](C)C(=O)N1CCC[C@H]1C(=O)N[C@@H](C)C(=O)N[C@@H](CCCCNC(=O)CCCCCNC(=O)CC[C@H](NC(=O)CCCCCCCCCCCCCCCCC(=O)O)C(=O)O)C(=O)N1CCC[C@H]1C(=O)N[C@@H](CCC(=O)O)C(=O)N[C@@H](CCC(=O)O)C(=O)N[C@@H](C)C(=O)N[C@@H](C)C(=O)N[C@@H](CO)C(=O)N1CCC[C@H]1C(=O)N[C@@H](CCC(=O)O)C(=O)N[C@@H](CCC(=O)O)C(=O)N[C@@H](CC(C)C)C(=O)N[C@@H](CCC(N)=O)C(=O)N[C@@H](CCCNC(=N)N)C(=O)N[C@@H](Cc1ccc(O)cc1)C(=O)N[C@@H](Cc1ccc(O)cc1)C(=O)N[C@H](C(=O)N[C@@H](C)C(=O)N[C@@H](CC(C)C)C(=O)N[C@@H](CCCNC(=N)N)C(=O)N[C@@H](Cc1c[nH]cn1)C(=O)N[C@@H](Cc1ccc(O)cc1)C(=O)N[C@@H](Cc1ccc(O)cc1)C(=O)N[C@@H](CC(N)=O)C(=O)N[C@@H](Cc1c[nH]c2ccccc12)C(=O)N[C@@H](CC(C)C)C(=O)N[C@H](C(=O)N[C@@H](CCCNC(=N)N)C(=O)N[C@@H](CCC(N)=O)C(=O)N[C@@H](CCCNC(=N)N)C(=O)N[C@@H](Cc1ccc(O)cc1)C(N)=O)[C@@H](C)O)C(C)C [Compound 157, N{alpha-4}-(3-methylbutanoyl)-N{epsilon-7}-(6-[(4S)-4-carboxy-4-(17-carboxyheptadecanamido)butanamido]hexanoyl)-[4A,6A,7K,9E,11A,18Q,22V,23A,28Y,30W,31L]-hPYY(4-36)]
14.9 nM | 9.0 mg/mL | 9.3 mg/mL | CC(C)CC(=O)N[C@@H](C)C(=O)N1CCC[C@H]1C(=O)N[C@@H](CCC(=O)O)C(=O)N[C@@H](CCCCNC(=O)CCCCCNC(=O)CC[C@H](NC(=O)CCCCCCCCCCCCCCCCC(=O)O)C(=O)O)C(=O)N1CCC[C@H]1C(=O)N[C@@H](CCC(=O)O)C(=O)N[C@@H](CCC(=O)O)C(=O)N[C@@H](CC(=O)O)C(=O)N[C@@H](C)C(=O)N[C@H](C(=O)N1CCC[C@H]1C(=O)N[C@@H](CCC(=O)O)C(=O)N[C@@H](CCC(=O)O)C(=O)N[C@@H](CCC(=O)O)C(=O)N[C@@H](CCC(N)=O)C(=O)N[C@@H](CCCNC(=N)N)C(=O)N[C@@H](Cc1ccc(O)cc1)C(=O)N[C@@H](Cc1ccc(O)cc1)C(=O)N[C@H](C(=O)N[C@@H](CO)C(=O)N[C@@H](CC(C)C)C(=O)N[C@@H](CCCNC(=N)N)C(=O)N[C@@H](Cc1c[nH]cn1)C(=O)N[C@@H](Cc1ccc(O)cc1)C(=O)N[C@@H](Cc1ccc(O)cc1)C(=O)N[C@@H](CC(N)=O)C(=O)N[C@@H](Cc1c[nH]c2ccccc12)C(=O)N[C@@H](CC(C)C)C(=O)N[C@H](C(=O)N[C@@H](CCCNC(=N)N)C(=O)N[C@@H](CCC(N)=O)C(=O)N[C@@H](CCCNC(=N)N)C(=O)N[C@@H](Cc1ccc(O)cc1)C(N)=O)[C@@H](C)O)C(C)C)[C@@H](C)O [Compound 162, N{alpha-4}-(3-methylbutanoyl)-N{epsilon-7}-(6-[(4S)-4-carboxy-4-(17-carboxyheptadecanamido)butanamido]hexanoyl)-[4A,7K,9E,13T,17E,18Q,22V,28Y,30W,31L]-hPYY(4-36)]
